Consider 28 compounds from US9499535B2, “Kinase inhibitors” (ORIGENIS GMBH, priority 2011, dated 2016).

The target of one assay is T1, SYK kinase (Homo sapiens, UniProt P43405).
T1 construct: purchased Invitrogen, Carlsbad
As to the kind of experiment: SYK assay (OMNIA Kinase Assay, Invitrogen). The conditions noted are these: apparent Ki calculated from the IC50 using the Cheng-Prusoff equation; 1 mM ATP, 10 μM Peptide Substrate; read-out: SYK Activities: Ki. The class given is biochemical. In outline:
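Reaction velocities were measured from kinetic fluorescence reads (360/485 nm, every 30 s over 30 min) of Mg2+-chelated SOX signal. Conditions were 1 mM ATP, 10 μM Omnia Tyr 7 peptide and 0.2 mM DTT at 30° C. Sigmoidal IC50 fits were converted to apparent Ki using Cheng-Prusoff.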

The target of the next assay is LRRK2 (Homo sapiens, UniProt Q5S007). Nature of the assay: LRRK2 assay (LanthaScreen Eu Kinase Binding Assay). The conditions noted are these: 5 nM LRRK2, 10 nM tracer 236, RT 1 h; read-out: LRRK2 Activites: IC50. Summed up: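 IC50 was derived from a sigmoidal dose-response fit with variable slope, plotting emission ratio against inhibitor concentration. The read-out is loss of FRET between a europium-labelled anti-tag antibody on the kinase and a tracer displaced by inhibitor.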
Chain of LRRK2 (Q5S007 970-2527 limits assumed): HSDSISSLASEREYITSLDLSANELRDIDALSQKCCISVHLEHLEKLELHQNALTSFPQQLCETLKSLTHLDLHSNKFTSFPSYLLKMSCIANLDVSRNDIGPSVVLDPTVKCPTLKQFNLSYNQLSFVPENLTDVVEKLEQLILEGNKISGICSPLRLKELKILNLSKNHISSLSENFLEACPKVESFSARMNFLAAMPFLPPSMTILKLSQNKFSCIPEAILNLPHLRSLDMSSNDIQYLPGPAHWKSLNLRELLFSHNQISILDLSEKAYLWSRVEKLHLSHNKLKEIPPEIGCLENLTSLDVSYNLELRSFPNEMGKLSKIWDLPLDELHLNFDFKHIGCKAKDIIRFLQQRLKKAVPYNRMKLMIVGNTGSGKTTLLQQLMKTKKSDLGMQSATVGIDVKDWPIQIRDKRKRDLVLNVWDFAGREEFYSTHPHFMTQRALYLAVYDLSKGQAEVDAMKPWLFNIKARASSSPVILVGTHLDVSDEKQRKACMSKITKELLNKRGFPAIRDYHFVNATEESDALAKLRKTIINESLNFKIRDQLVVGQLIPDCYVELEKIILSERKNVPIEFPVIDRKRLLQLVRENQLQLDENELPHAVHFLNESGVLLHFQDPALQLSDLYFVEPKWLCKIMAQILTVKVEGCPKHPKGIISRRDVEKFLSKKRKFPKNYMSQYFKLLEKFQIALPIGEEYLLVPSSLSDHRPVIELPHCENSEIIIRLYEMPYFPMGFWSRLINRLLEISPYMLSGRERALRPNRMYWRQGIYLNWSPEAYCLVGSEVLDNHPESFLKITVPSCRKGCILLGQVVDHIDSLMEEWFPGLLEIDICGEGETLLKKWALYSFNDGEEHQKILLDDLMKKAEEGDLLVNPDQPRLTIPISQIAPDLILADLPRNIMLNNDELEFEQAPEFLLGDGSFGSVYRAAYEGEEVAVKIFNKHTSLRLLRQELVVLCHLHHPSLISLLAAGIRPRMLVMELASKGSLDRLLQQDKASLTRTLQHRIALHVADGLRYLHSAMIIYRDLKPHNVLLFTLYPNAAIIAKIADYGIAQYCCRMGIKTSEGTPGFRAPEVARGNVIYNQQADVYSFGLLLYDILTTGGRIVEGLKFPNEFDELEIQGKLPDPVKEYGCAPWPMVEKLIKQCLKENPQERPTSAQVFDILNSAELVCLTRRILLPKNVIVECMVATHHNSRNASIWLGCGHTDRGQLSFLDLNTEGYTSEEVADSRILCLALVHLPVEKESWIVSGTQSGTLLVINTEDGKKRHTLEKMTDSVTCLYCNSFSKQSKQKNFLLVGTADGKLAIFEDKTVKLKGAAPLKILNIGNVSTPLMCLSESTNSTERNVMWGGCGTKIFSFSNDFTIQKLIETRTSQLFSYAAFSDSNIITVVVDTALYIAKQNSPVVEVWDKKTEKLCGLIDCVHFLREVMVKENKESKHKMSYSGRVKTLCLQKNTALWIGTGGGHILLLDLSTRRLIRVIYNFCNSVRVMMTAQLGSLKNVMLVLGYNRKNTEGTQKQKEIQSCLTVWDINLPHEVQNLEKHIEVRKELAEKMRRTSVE
A general note: Time-resolved FRET reads energy transfer from a long-lived donor to a nearby acceptor.

The next assay has as its target MYLK (Homo sapiens, UniProt Q15746). Nature of the assay: MYLK assay (LanthaScreen Eu Kinase Binding Assay). The conditions noted are these: 5 nM MYLK, 30 nM tracer 236, RT 1 h; read-out: MYLK Activites: IC50. Summed up:
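TR-FRET tracer-displacement binding: 5 nM MYLK with 2 nM Eu-anti-GST antibody and 30 nM tracer 236 in kinase buffer A, 1 h at RT. The 665/615 nm emission ratio was plotted against inhibitor concentration; IC50 from variable-slope sigmoidal fit.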

In general, IC50 refers to the midpoint of a concentration-inhibition curve.

Chain of MYLK (Q15746 whole entry): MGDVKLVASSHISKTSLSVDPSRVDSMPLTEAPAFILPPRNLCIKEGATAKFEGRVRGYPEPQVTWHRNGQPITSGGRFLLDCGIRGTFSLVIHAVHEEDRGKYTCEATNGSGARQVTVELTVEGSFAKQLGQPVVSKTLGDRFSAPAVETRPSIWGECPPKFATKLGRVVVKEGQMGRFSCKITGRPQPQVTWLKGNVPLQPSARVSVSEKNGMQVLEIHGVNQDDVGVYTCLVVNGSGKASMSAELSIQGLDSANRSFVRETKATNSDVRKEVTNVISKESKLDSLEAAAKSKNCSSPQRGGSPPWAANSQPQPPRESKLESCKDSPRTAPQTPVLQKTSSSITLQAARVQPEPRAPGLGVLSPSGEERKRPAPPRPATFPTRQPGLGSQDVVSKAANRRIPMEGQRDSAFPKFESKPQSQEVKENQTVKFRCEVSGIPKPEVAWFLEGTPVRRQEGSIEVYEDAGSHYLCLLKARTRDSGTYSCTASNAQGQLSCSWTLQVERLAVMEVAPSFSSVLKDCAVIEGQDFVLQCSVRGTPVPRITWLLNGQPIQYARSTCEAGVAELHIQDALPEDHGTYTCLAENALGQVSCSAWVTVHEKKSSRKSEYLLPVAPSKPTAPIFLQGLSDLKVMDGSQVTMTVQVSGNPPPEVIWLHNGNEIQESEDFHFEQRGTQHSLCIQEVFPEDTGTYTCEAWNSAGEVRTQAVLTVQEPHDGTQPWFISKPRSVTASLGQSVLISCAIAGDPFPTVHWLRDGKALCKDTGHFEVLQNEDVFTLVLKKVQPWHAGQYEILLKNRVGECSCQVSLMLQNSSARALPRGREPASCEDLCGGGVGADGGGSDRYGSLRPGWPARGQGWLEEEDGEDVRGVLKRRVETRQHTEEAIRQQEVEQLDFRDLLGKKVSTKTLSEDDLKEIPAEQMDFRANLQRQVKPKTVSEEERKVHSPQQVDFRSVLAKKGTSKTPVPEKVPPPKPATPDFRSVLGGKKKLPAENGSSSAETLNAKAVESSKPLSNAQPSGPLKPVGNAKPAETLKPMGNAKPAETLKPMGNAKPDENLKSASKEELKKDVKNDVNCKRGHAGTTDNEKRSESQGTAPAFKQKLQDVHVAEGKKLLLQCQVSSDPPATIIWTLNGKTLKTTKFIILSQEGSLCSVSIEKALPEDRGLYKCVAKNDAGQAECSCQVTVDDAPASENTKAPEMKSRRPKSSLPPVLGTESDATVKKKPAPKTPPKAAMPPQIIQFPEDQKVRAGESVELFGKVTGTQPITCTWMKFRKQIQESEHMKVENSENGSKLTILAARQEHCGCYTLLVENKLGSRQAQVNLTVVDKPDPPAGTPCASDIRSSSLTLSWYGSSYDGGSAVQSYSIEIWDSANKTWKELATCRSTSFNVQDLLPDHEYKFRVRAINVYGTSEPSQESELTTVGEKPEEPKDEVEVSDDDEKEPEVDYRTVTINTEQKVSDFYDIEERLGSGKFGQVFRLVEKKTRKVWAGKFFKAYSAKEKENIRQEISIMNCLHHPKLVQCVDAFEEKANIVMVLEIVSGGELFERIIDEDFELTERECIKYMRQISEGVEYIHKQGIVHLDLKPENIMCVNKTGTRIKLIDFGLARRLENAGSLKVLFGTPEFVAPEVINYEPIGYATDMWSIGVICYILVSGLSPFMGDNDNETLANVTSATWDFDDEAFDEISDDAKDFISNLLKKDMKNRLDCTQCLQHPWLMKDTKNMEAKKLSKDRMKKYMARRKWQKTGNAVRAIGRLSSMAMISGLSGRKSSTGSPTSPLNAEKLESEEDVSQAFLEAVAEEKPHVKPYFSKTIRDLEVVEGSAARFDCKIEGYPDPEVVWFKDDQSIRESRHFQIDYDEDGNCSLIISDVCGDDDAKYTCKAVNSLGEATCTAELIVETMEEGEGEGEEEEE

With `COc1ccc2nc(Nc3ccc(O)c(O)c3)c3n[nH]cc3c2c1` [Example #162, 4-(8-Methoxy-2H-pyrazolo[3,4-c]quinolin-4-ylamino)-benzene-1,2-diol], the Ki at SYK kinase was 10 to 100 nM. Further, the IC50 was 100 to 1000 nM on LRRK2 and less than 5000 nM on MYLK.

With `COc1ccc2nc(Nc3ccc(OC4CCN(C)CC4)cc3)c3n[nH]cc3c2c1` [Example #163, (8-Methoxy-2H-pyrazolo[3,4-c]quinolin-4-yl)-[4-(1-methyl-piperidin-4-yloxy)-phenyl]-amine], the Ki on SYK kinase is 10 to 100 nM. Also, the IC50 at LRRK2 was 100 to 1000 nM; on MYLK, less than 5000 nM.

For `COc1ccc2nc(Nc3ccc(N4CCN(C(C)=O)CC4)cc3)c3n[nH]cc3c2c1` [Example #164, 1-{4-[4-(8-Methoxy-2H-pyrazolo[3,4-c]quinolin-4-ylamino)-phenyl]-piperazin-1-yl}-ethanone], the Ki on SYK kinase was less than 10 nM. The IC50 at LRRK2 is 10 to 100 nM; on MYLK, less than 5000 nM.

Take `COc1ccc2nc(Nc3ccc(N4CCN(C)CC4)nc3)c3n[nH]cc3c2c1` [Example #165, (8-Methoxy-2H-pyrazolo[3,4-c]quinolin-4-yl)-[6-(4-methyl-piperazin-1-yl)-pyridin-3-yl]-amine]: the Ki at SYK kinase was 10 to 100 nM. Also, the values for the IC50 on LRRK2 and at MYLK were 10 to 100 nM and less than 5000 nM, respectively.

As for `COc1cccc2c1nc(Nc1ccc(N3CCN(C)CC3)cc1)c1n[nH]cc12` [Example #166, (6-Methoxy-2H-pyrazolo[3,4-c]quinolin-4-yl)-[4-(4-methyl-piperazin-1-yl)-phenyl]-amine], the Ki on SYK kinase is 10 to 100 nM. The IC50 at LRRK2 was 100 to 1000 nM; on MYLK, less than 5000 nM.

For `COc1ccc(Nc2nc3c(OC)cccc3c3c[nH]nc23)cc1OC` [Example #167, (3,4-Dimethoxy-phenyl)-(6-methoxy-2H-pyrazolo[3,4-c]quinolin-4-yl)-amine], the Ki on SYK kinase was 10 to 100 nM. The IC50 on LRRK2 is 100 to 1000 nM; at MYLK, less than 5000 nM.

On to `COc1cccc2c1nc(Nc1cc(C3CC3)[nH]n1)c1n[nH]cc12` [Example #169, (5-Cyclopropyl-1H-pyrazol-3-yl)-(6-methoxy-2H-pyrazolo[3,4-c]quinolin-4-yl)-amine], for which, at SYK kinase, the Ki is less than 10 nM. The IC50 is 10 to 100 nM at LRRK2 and less than 5000 nM on MYLK.

Turning to `COc1cccc2c1nc(Nc1ccc3cn[nH]c3c1)c1n[nH]cc12` [Example #171, (1H-Indazol-6-yl)-(6-methoxy-2H-pyrazolo[3,4-c]quinolin-4-yl)-amine], the Ki at SYK kinase is 10 to 100 nM. Also, the IC50 on LRRK2 was 100 to 1000 nM; on MYLK, less than 5000 nM.

On to `COc1ccc2c(c1)nc(Nc1ccc3cn[nH]c3c1)c1n[nH]cc12` [Example #172, (1H-Indazol-6-yl)-(7-methoxy-2H-pyrazolo[3,4-c]quinolin-4-yl)-amine], for which the Ki at SYK kinase is 10 to 100 nM. Also, the IC50 is 100 to 1000 nM at LRRK2 and less than 5000 nM at MYLK.

With `COc1ccc2nc(Nc3ccc(N4CCN(C5CC5)CC4)cc3)c3n[nH]cc3c2c1` [Example #179, [4-(4-Cyclopropyl-piperazin-1-yl)-phenyl]-(8-methoxy-2H-pyrazolo[3,4-c]quinolin-4-yl)-amine], on SYK kinase, the Ki is 10 to 100 nM. For the same compound, the IC50 on LRRK2 was 100 to 1000 nM; at MYLK it was less than 5000 nM.

With `COc1ccc2nc(Nc3ccc(N4CCN(C)CC4)c(C)c3)c3n[nH]cc3c2c1` [Example #183, (8-Methoxy-2H-pyrazolo[3,4-c]quinolin-4-yl)-[3-methyl-4-(4-methyl-piperazin-1-yl)-phenyl]-amine], the Ki at SYK kinase is 10 to 100 nM. The IC50 was 10 to 100 nM at LRRK2 and less than 5000 nM on MYLK.

`COc1ccc2nc(Nc3ccc(N4CCNCC4)cc3)c3n[nH]cc3c2c1` [Example #184, (8-Methoxy-2H-pyrazolo[3,4-c]quinolin-4-yl)-(4-piperazin-1-yl-phenyl)-amine]: the Ki at SYK kinase is less than 10 nM. The values for the IC50 on LRRK2 and at MYLK were 100 to 1000 nM and less than 5000 nM, respectively.

As for `COc1ccc2nc(Nc3ccc(CN(C)C)cc3)c3n[nH]cc3c2c1` [Example #185, (4-Dimethylaminomethyl-phenyl)-(8-methoxy-2H-pyrazolo[3,4-c]quinolin-4-yl)-amine], the Ki on SYK kinase was 10 to 100 nM. The IC50 on LRRK2 is 100 to 1000 nM; on MYLK it was less than 5000 nM.

Consider `CCN1CCN(c2ccc(Nc3nc4ccc(OC)cc4c4c[nH]nc34)cc2)CC1` [Example #187, [4-(4-Ethyl-piperazin-1-yl)-phenyl]-(8-methoxy-2H-pyrazolo[3,4-c]quinolin-4-yl)-amine], for which, at SYK kinase, the Ki was less than 10 nM. Besides, the IC50 was 10 to 100 nM at LRRK2 and less than 5000 nM on MYLK.

Consider `COc1ccc2nc(Nc3ccc4c(c3)NC(=O)CCC4)c3n[nH]cc3c2c1` [Example #188, 8-(8-Methoxy-2H-pyrazolo[3,4-c]quinolin-4-ylamino)-1,3,4,5-tetrahydro-benzo[b]azepin-2-one], for which, on SYK kinase, the Ki was less than 10 nM. Also, the IC50 was 10 to 100 nM on LRRK2 and less than 5000 nM at MYLK.

For the compound `COc1ccc2nc(Nc3ccc(N(C)C4CCN(C)CC4)cc3)c3n[nH]cc3c2c1` [Example #192, N-(8-Methoxy-2H-pyrazolo[3,4-c]quinolin-4-yl)-N′-methyl-N′-(1-methyl-piperidin-4-yl)-benzene-1,4-diamine], on SYK kinase, the Ki is 10 to 100 nM. Further, the values for the IC50 at LRRK2 and on MYLK were 10 to 100 nM and less than 5000 nM, respectively.

As to `COc1ccc2nc(Nc3ccc(CCN4CCOCC4)cc3)c3n[nH]cc3c2c1` [Example #193, (8-Methoxy-2H-pyrazolo[3,4-c]quinolin-4-yl)-[4-(2-morpholin-4-yl-ethyl)-phenyl]-amine], the Ki on SYK kinase was 10 to 100 nM. For the same compound, the IC50 is 100 to 1000 nM on LRRK2 and less than 5000 nM at MYLK.

`COc1ccc2nc(Nc3ccc(N4CCN(C)CC4)c(Cl)c3)c3n[nH]cc3c2c1` [Example #195, [3-Chloro-4-(4-methyl-piperazin-1-yl)-phenyl]-(8-methoxy-2H-pyrazolo[3,4-c]quinolin-4-yl)-amine]: on SYK kinase, the Ki is 10 to 100 nM. The IC50 is 100 to 1000 nM on LRRK2 and less than 5000 nM at MYLK.

`COc1cccc2nc(Nc3cc(C4CC4)[nH]n3)c3n[nH]cc3c12` [Example #199, (5-Cyclopropyl-1H-pyrazol-3-yl)-(9-methoxy-2H-pyrazolo[3,4-c]quinolin-4-yl)-amine]: the Ki on SYK kinase was 10 to 100 nM. Moreover, the IC50 is 10 to 100 nM at LRRK2 and less than 5000 nM on MYLK.

Take `COc1cccc2nc(Nc3ccc(N4CCN(C)CC4)cc3)c3n[nH]cc3c12` [Example #201, (9-Methoxy-2H-pyrazolo[3,4-c]quinolin-4-yl)-[4-(4-methyl-piperazin-1-yl)-phenyl]-amine]: the Ki at SYK kinase is 10 to 100 nM. Also, the IC50 at LRRK2 was 100 to 1000 nM; on MYLK, less than 5000 nM.

Regarding `COc1cccc2nc(Nc3ccc(N4CCOCC4)cc3)c3n[nH]cc3c12` [Example #202, (9-Methoxy-2H-pyrazolo[3,4-c]quinolin-4-yl)-(4-morpholin-4-yl-phenyl)-amine], the Ki on SYK kinase was 10 to 100 nM. Besides, the figures for the IC50 at LRRK2 and at MYLK were 10 to 100 nM and less than 5000 nM, respectively.

`COc1cccc2nc(Nc3ccc4cn[nH]c4c3)c3n[nH]cc3c12` [Example #203, (1H-Indazol-6-yl)-(9-methoxy-2H-pyrazolo[3,4-c]quinolin-4-yl)-amine]: the Ki at SYK kinase was 10 to 100 nM. Further, the IC50 at LRRK2 was 10 to 100 nM; on MYLK it was less than 5000 nM.

For the compound `COc1ccc2nc(Nc3ccc(OC)nc3)c3n[nH]cc3c2c1` [Example #206, (8-Methoxy-2H-pyrazolo[3,4-c]quinolin-4-yl)-(6-methoxy-pyridin-3-yl)-amine], the Ki on SYK kinase was 10 to 100 nM. Also, the values for the IC50 on LRRK2 and at MYLK were 100 to 1000 nM and less than 5000 nM, respectively.

Regarding `Cc1[nH]nc2c(Nc3ccc(N4CCN(C)CC4)cc3)nc3ccccc3c12` [Example #208, [4-(4-Methyl-piperazin-1-yl)-phenyl]-(1-methyl-2H-pyrazolo[3,4-c]quinolin-4-yl)-amine], on SYK kinase, the Ki was 10 to 100 nM. Moreover, the IC50 at LRRK2 was 100 to 1000 nM; on MYLK, less than 5000 nM.

Regarding `Cc1[nH]nc2c(Nc3ccc4cn[nH]c4c3)nc3ccccc3c12` [Example #209, (1H-Indazol-6-yl)-(1-methyl-2H-pyrazolo[3,4-c]quinolin-4-yl)-amine], the Ki at SYK kinase is less than 10 nM. The IC50 was 10 to 100 nM on LRRK2 and less than 5000 nM on MYLK.

Consider `COc1ccc2nc(Nc3cccc(N4CCNCC4)c3)c3n[nH]cc3c2c1` [Example #221, (8-Methoxy-2H-pyrazolo[3,4-c]quinolin-4-yl)-(3-piperazin-1-yl-phenyl)-amine], for which, on SYK kinase, the Ki was 100 to 1000 nM. The IC50 at LRRK2 is 100 to 1000 nM; on MYLK it was less than 5000 nM.

Consider `CCN(CC)CCNC(=O)c1ccc(Nc2nc3ccc(OC)cc3c3c[nH]nc23)cc1` [Example #222, N-(2-Diethylamino-ethyl)-4-(8-methoxy-2H-pyrazolo[3,4-c]quinolin-4-ylamino)-benzamide], for which the Ki at SYK kinase is less than 10 nM. Further, the IC50 on LRRK2 was 100 to 1000 nM; at MYLK, less than 5000 nM.

`COc1ccc2nc(Nc3cnc(N4CCN(C)CC4)nc3)c3n[nH]cc3c2c1` [Example #223, (8-Methoxy-2H-pyrazolo[3,4-c]quinolin-4-yl)-[2-(4-methyl-piperazin-1-yl)-pyrimidin-5-yl]-amine]: at SYK kinase, the Ki is 100 to 1000 nM. Also, the IC50 was 100 to 1000 nM on LRRK2 and less than 5000 nM on MYLK.
